Legend:
[1] = biological target: T1, thromboxane synthetase enzyme (Rattus norvegicus, UniProt P49430); test: inhibition of thromboxane (TXA2) formation, TXB2 determined by direct radioimmunoassay in washed rat platelets; type: cell-based, Okamoto-Aoki spontaneously hypertensive rats (SHR); details: Dose 10^-4 M; SHR platelets, 10 minutes at 37° C.
T1 construct: endogenous in cells; host or cells: washed platelets from arterial blood of Okamoto-Aoki spontaneously hypertensive rats (Taconic Farms, Germantown, NY)
T1 sequence (P49430 1-533): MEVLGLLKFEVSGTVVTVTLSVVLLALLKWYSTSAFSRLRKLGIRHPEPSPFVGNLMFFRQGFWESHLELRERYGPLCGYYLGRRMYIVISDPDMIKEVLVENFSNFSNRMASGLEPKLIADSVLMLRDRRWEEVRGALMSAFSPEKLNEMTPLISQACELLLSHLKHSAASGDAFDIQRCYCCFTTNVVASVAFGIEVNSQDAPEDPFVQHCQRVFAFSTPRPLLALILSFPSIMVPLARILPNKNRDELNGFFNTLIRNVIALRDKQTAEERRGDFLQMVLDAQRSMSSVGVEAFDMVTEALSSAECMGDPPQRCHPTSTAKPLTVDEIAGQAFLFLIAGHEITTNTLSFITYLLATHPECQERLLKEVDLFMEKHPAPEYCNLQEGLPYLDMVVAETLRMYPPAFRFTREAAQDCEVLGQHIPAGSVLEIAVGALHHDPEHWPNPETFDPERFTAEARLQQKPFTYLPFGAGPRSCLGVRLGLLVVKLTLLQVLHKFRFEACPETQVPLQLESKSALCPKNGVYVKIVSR
Procedure: The inhibition of thromboxane (TXA2) formation was studied by determining the concentration of thromboxane B2 (TXB2), the stable hydrolysis product of TXA2.
Under urethan anesthesia, […] of arterial blood was collected in one ml of 3.2% sodium citrate in a polystyrene tube from Okamoto-Aoki spontaneously hypertensive rats (SHR) (Taconic Farms, Germantown, NY) between 19 and 24 weeks in age. The blood was diluted with 3 ml cold saline and centrifuged at room temperature for 15 minutes at 460 xg. The platelet rich plasma (PRP) was separated. The platelets were isolated by centrifuging the PRP for 10 minutes at 1060 xg and were washed in 4 ml cold oxygenated Krebs phosphate buffer, pH 7.4. The chilled platelets recovered from centrifuging at 800 xg for 10 minutes were resuspended in oxygenated Krebs phosphate buffer and diluted to contain 4.5-6.0×10^4 platelets/μl. Assay samples, prepared on ice, contained 200 μl platelet suspension, 50 μl saline, and 50 μl vehicle or drug under study (OKY-1581, UK-37248-01, 1-benzylimidazole, or indomethacin). The samples were incubated for 10 minutes at 37° C. in a metabolic shaker. The reaction was terminated by immersing the tubes in an ice bath and adding 50 μl of 0.5M citric acid. The samples were centrifuged for 10 minutes in a refrigerated centrifuge and the supernatants thus obtained were decanted and stored at -20° C. The TXB2 content for each sample was determined by a direct radioimmunoassay (RIA) utilizing a TXB2 specific RIA kit purchased from New England Nuclear, Boston, Mass. and expressed as pg TXB2 formed minute^-1 sample^-1, from which the percent inhibition of TXB2 formation was calculated.

[2] = hypotensive activity in spontaneously hypertensive rats, mean arterial blood pressure (method of Chan and Poorvin); type: in vivo; details: gavage, 100 mg/kg or less, two doses 24 hours apart; measured 28 hours after initial dose; average MABP of rats used 160±1.5 mm Hg; (no. of rats) in parentheses
Procedure: The novel compounds of the present invention also are active antihypertensive agents and were tested for hypotensive activity by the method of P. S. Chan and D. Poorvin, Clinical and Experimental Hypertension, 1 (6), 817-830 (1979). Male, 16 week old, spontaneously hypertensive rats of the Okamoto strain, from Taconic Farms, Germantown, N.Y., having an average mean arterial blood pressure of 160±1.5 mm of mercury are used in the test. One to three rats are used per test compound. A rat is dosed by gavage with a test compound, suspended in 2% pre-boiled starch at a concentration of 50 mg/ml, at a dose of 100 mg/kg of body weight or less with 0.9% sodium chloride loading at a dose of 25 ml/kg of body weight. A second identical dose of the test compound without sodium chloride loading is given 24 hours later. At 28 hours after the initial dose the mean arterial blood pressure is measured by the method of Chan and Poorvin vide supra. The procedure is repeated in a second and third rat when necessary.

| inhibition at 100 µM [1] | Structure (SMILES) | MABP in mm Hg [2] |
| --- | --- | --- |
| 58% | O=C(NCCCn1ccnc1)c1cccnc1Cl [2-Chloro-N--[3-(1H--imidazol-1-yl)propyl]-3-pyridinecarboxamide] | – |
| 50% | Cc1cn(CCCNC(=O)c2cccnc2Cl)cn1 [2-Chloro-N--[3-(4-methyl-1H--imidazol-1-yl)propyl]-3-pyridinecarboxamide] | – |
| 90% | O=C(NCCCCn1ccnc1)c1cccnc1Cl [2-Chloro-N--[4-(1H--imidazol-1-yl)butyl]-3-pyridinecarboxamide] | – |
| 38% | Cc1nccn1CCCNC(=O)c1cccnc1Cl [2-Chloro-N-[3-(2-methyl-1H-imidazol-1-yl)propyl]-3-pyridinecarboxamide] | – |
| 88% | O=C(NCCCn1ccnc1)c1ccc(Cl)nc1 [6-Chloro-N--[3-(1H--imidazol-1-yl)propyl]-3-pyridinecarboxamide] | 132 mm Hg |
| 94% | O=C(NCCCCn1ccnc1)c1ccc(Cl)nc1 [6-Chloro-N--[4-(1H--imidazol-1-yl)butyl]-3-pyridinecarboxamide] | – |
| 67% | O=C(NCCCn1cncn1)c1ccc(Cl)nc1 [6-Chloro-N-[3-(1H-1,2,4-triazol-1-yl)propyl]-3-pyridinecarboxamide] | 140 mm Hg |
| 98% | CC(CNC(=O)c1ccc(Cl)nc1)Cn1ccnc1 (stereo not shown) [6-Chloro-N-[3-(1H-imidazol-1-yl)-2-methylpropyl]-3-pyridinecarboxamide] | 129 mm Hg |
| 98% | CC(CCNC(=O)c1ccc(Cl)nc1)n1ccnc1 (stereo not shown) [6-Chloro-N-[3-(1H-imidazol-1-yl)butyl]-3-pyridinecarboxamide] | 111 mm Hg |
| 44% | Cc1nccn1CCCNC(=O)c1ccc(Cl)nc1 [6-Chloro-N-[3-(2-methyl-1H-imidazol-1-yl)propyl]-3-pyridinecarboxamide] | – |
| 56% | O=C(NCCCn1ccnc1-c1ccccc1)c1ccc(Cl)nc1 [6-Chloro-N-[3-(2-phenyl-1H-imidazol-1-yl)propyl]-3-pyridinecarboxamide] | – |
| 86% | Cc1cn(CCCNC(=O)c2ccc(Cl)nc2)cn1 [6-Chloro-N-[3-(4-methyl-1H-imidazol-1-yl)propyl]-3-pyridinecarboxamide] | 139 mm Hg |
| 83% | O=C(NCCCn1ccnc1)c1cccnc1 [N--[3-(1H--Imidazol-1-yl)propyl]-3-pyridinecarboxamide] | 138 mm Hg |
| 84% | Cc1cn(CCCNC(=O)c2ccccn2)cn1 [N--[3-(4-Methyl-1H--imidazol-1-yl)propyl]-2-pyridinecarboxamide] | 140 mm Hg |
| 50% | Cc1cn(CCCNC(=O)c2cccnc2)cn1 [N--[3-(4-Methyl-1H--imidazol-1-yl)propyl]-3-pyridinecarboxamide] | 123 mm Hg |
| 59% | O=C(NCCCn1ccnc1)c1ccccn1 [N-[3-(1H-Imidazol-1-yl)propyl]-2-pyridinecarboxamide] | 127 mm Hg |
| 30% | O=C(NCCCn1ccnc1-c1ccccc1)c1ccccn1 [N-[3-(2-Phenyl-1H-imidazol-1-yl)propyl]-2-pyridinecarboxamide] | – |
| 82% | O=C(NCCCCn1ccnc1)c1ccccn1.O=C(O)/C=C/C(=O)O [N-[4-(1H-Imidazol-1-yl)butyl]-2-pyridinecarboxamide, fumarate] | 116 mm Hg |
